In assay [1] the test system is Human brain vascular endothelial cells (hCMEC/D3). The assay is described as follows: Cell viability of human brain vascular endothelial cells under hydrogen peroxide stress. In kind it is cell-based. To be noted: 450 μM hydrogen peroxide, 6 hours; PrestoBlue; stressed cells without test compound about 0.2; FIG. 17. As for the experimental part:
Human brain vascular endothelial cells (hCMEC/D3, Sigma) were seeded to 5,000 cells/cm^2 on a 96-well plate (Falcon cell culture 96-well multi-well plate, with flat bottom lid) coated with 0.1 mg/ml collagen type 1 (Sigma-Aldrich), and cultured at 37° C. for 24 hours with 5% CO2 using Endothelial Cell Growth Medium (PromoCell, Germany). Bismuth citrate, bismuth subnitrate, bismuth tartrate, or zinc sulfate dissolved in saline, and hydrogen peroxide at a final concentration of 450 μM were added to the medium and incubated for 6 hours to simultaneously stress the cells and treat them with test compounds. The cell viability after loading stress was measured using PrestoBlue (registered trademark) Cell Viability Reagent (Life Technologies).
The cell viability is illustrated in FIG. 17 when the cell viability of the control without hydrogen peroxide stress is 1 and the cell-free is 0. […] Note that the survival rate of the cells subjected to hydrogen peroxide stress and not added the test compound was about 0.2.

For assay [2], the system named is spinal cord crush injury rats. Nature of the assay: Histological evaluation in spinal cord crush injury model. The assay is classed as in vivo, Lewis rats. The conditions noted are these: 8 weeks after injury, vs vehicle; for reactive astrocyte area (GFAP positive area): FIG. 6. Here is the method: Crush injuries were created in the fifth cervical cord (C5) of Lewis rats (female, 8 to 14 weeks old, n=14 to 18/group) under anesthesia by applying a pressure of 200 kdyn using an IH impactor. For seven consecutive days from the day of injury creation, 380 to 420 μL of the test compound dissolved in saline or DMSO, or vehicle was intraperitoneally administered. The daily doses were 20 mg/kg body weight of papaverine, 1 mg/kg body weight of mubritinib, and 1 mg/kg body weight of brexpiprazole. After the rats were kept for 8 weeks from injury creation, histological evaluation and sensory function evaluation for pathological conditions at the chronic stage of the spinal cord injury were performed. After perfusion and fixation of the rats in the same manner as in Example 3, the 2 cm long spinal cord centering the injury site was dissected. The dissected spinal cords were immersed in PBS containing 30% sucrose for overnight and then transected horizontally to prepare frozen sections having a thickness of 30 μm. After washing the sections with TBS, blocking was performed in a blocking buffer (TBS containing 5% normal horse serum and 0.25% Triton X-100) for 1 hour at room temperature. After washing with PBS, the sections were reacted with a primary antibody at 4° C. overnight. As the primary antibody, purified anti-Glial Fibrillary Acidic Protein (GFAP) Antibody (Biolegend) and Anti-NeuN Antibody, clone A60 (Millipore) were diluted with TBS containing 5% normal horse serum and 0.25% Triton X-100 at 1:1000 and at 1:500, respectively, and used. After washing with TBS, the sections were reacted with a secondary antibody at room temperature for 3 hours. As the secondary antibody, both Alexa Fluor 594 donkey anti-mouse IgG (Jackson ImmunoResearch) and Alexa Fluor 594 donkey anti-chicken IgG (Jackson ImmunoResearch) were diluted with TBS containing 3% normal horse serum and 0.25% Triton X-100 at 1:500, and used. After washing with TBS, the sections were observed using BZ-X710 (KEYENCE) to obtain fluorescent images. For the section of the central part of the spinal cord of the rat, the cavity area of the injured part, the area of the region immunostained with the GFAP antibody, and the number of cells immunostained with the NeuN antibody present on the lines 1.5 mm rostal and caudal from the center of the injury were measured. GFAP is a marker for reactive astrocytes and NeuN is a marker for neurons. Immediately after creating crush injuries in the fifth cervical cord (C5) of Lewis rats (female, 8 to 14 weeks old, n=8/group) under anesthesia in the same manner as in Example 4, 500 mg/kg of bismuth subnitrate dissolved in saline, or vehicle (saline) was intraperitoneally administered. After the rats were kept for 8 weeks from injury creation, histological evaluation and sensory function evaluation were performed for pathological conditions at the chronic stage of the spinal cord injury. In the same manner as in Example 4, for the section of the central part of the spinal cord of the rat, the reactive astrocyte area, the cavity area of the injured part, and the number of remaining neurons present on the lines 1.5 mm rostal and caudal from the center of the injury were measured.

In assay [3] the test system is cerebral cortex injury mice. The assay is described as follows: IgG leakage in cerebral cortex injury model. The assay is classed as in vivo, C57BL/6 mice. To be noted: i.p. day before and on day of injury; bismuth subnitrate 500, papaverine 20 mg/kg; vs vehicle; FIG. 16. As for the experimental part:
Protection of the BBSCB function in traumatic brain injury by papaverine, mubritinib, brexpiprazole, and bismuth subnitrate was evaluated by observing suppression of IgG leakage from the injured site using the following method. C57BL/6 mice (male, 8 to 13 weeks old, n=3 to 4/group) were intraperitoneally administered 200 μL of the test compound dissolved in saline or DMSO, or vehicle. The doses were 20 mg/kg body weight of papaverine, 1 mg/kg body weight of mubritinib, 1 mg/kg body weight of brexpiprazole, and 500 mg/kg body weight of bismuth subnitrate. On the next day after administration, injuries were created in the left cerebral hemisphere cortex of the mice under anesthesia by a wire-knife transection method. The mice were immobilized in a stereotaxic frame, and the left lateral 1 mm portion from the bregma of the cranial bone was opened with a microdrill. A wire-knife was inserted into the lateral 1.0 mm from the bregma and 0.5 mm deep in the left cerebral hemisphere, and the wire was extended caudally and pulled up to create the injury. […] For evaluation of the IgG-stained area, taken images were binarized into black and white using Photoshop CS3 (Adobe, CA, USA), and then quantified using Image J (Schneider et al., 2012). […] All quantitative evaluations were performed with the slides blinded. […]

Assay [4] has as its system spinal cord crush injury rats. The assay is described as follows: Sensory function evaluation (pain stimulus response time) in spinal cord crush injury model. The assay is classed as in vivo, Lewis rats. The conditions noted are these: single i.p. dose 500 mg/kg immediately after C5 crush injury; vs vehicle; FIG. 13. Here is the method: Crush injuries were created in the fifth cervical cord (C5) of Lewis rats (female, 8 to 14 weeks old, n=14 to 18/group) under anesthesia by applying a pressure of 200 kdyn using an IH impactor. For seven consecutive days from the day of injury creation, 380 to 420 μL of the test compound dissolved in saline or DMSO, or vehicle was intraperitoneally administered. The daily doses were 20 mg/kg body weight of papaverine, 1 mg/kg body weight of mubritinib, and 1 mg/kg body weight of brexpiprazole. After the rats were kept for 8 weeks from injury creation, histological evaluation and sensory function evaluation for pathological conditions at the chronic stage of the spinal cord injury were performed. […] Immediately after creating crush injuries in the fifth cervical cord (C5) of Lewis rats (female, 8 to 14 weeks old, n=8/group) under anesthesia in the same manner as in Example 4, 500 mg/kg of bismuth subnitrate dissolved in saline, or vehicle (saline) was intraperitoneally administered. After the rats were kept for 8 weeks from injury creation, histological evaluation and sensory function evaluation were performed for pathological conditions at the chronic stage of the spinal cord injury.

Assay [5] concerns spinal cord crush injury rats. The assay is described as follows: Walking function analysis (DigiGait) in spinal cord crush injury model. To be noted: single i.p. dose 500 mg/kg, 8 weeks after injury. In kind it is in vivo, Lewis rats. Here is the method:
Immediately after creating crush injuries in the fifth cervical cord (C5) of Lewis rats (female, 8 to 14 weeks old, n=8/group) under anesthesia in the same manner as in Example 4, 500 mg/kg of bismuth subnitrate dissolved in saline, or vehicle (saline) was intraperitoneally administered. After the rats were kept for 8 weeks from injury creation, histological evaluation and sensory function evaluation were performed for pathological conditions at the chronic stage of the spinal cord injury.
The ground contacting area (the Paw Area) of each leg and the maximum possible walking speed were measured in rats before and 8 weeks after spinal cord injury creation using the DigiGait walking analysis system for small animals (Bioresearch Center Co., Ltd.) according to the manual. […] All rats before spinal cord injury creation were able to walk at a treadmill speed of 20 cm/sec. In the vehicle-administered group, the number of rats that were able to walk at a speed of 15 cm/sec or faster decreased to two individuals, whereas in the bismuth subnitrate-administered group, 6 individuals were able to walk at a speed of 15 cm/sec or faster (FIG. 15).

The mark [6] stands for this setting: i.p. daily for 7 days from C5 crush injury, papaverine 20, mubritinib 1, brexpiprazole 1 mg/kg.

Consider `O=C([O-])CC(O)(CC(=O)[O-])C(=O)[O-].O=C([O-])CC(O)(CC(=O)[O-])C(=O)[O-].[Bi+3].[K+].[K+].[K+]` [Bismuth subcitrate, bismuth subcitrate], for which the “cell protective effect on hCMEC/D3 (cell viability) compared with zinc sulfate” value in assay [1] was “significantly higher”.

On to `COc1ccc(Cc2nccc3cc(OC)c(OC)cc23)cc1OC` [papaverine, 1-[(3,4-dimethoxyphenyl)methyl]-6,7-dimethoxyisoquinoline], for which, in assay [2] (setting [6]), the “reactive astrocyte area (GFAP positive area)” value is “significantly reduced”. Moreover, in assay [2] (i.p. daily for 7 days from C5 crush injury, papaverine 20, mubritinib 1, brexpiprazole 1 mg/kg, FIG. 7), the “cavity area of the injured part” value was “significantly reduced”. Further, in assay [2] (i.p. daily for 7 days from C5 crush injury, papaverine 20, mubritinib 1, brexpiprazole 1 mg/kg, FIG. 8), the “number of remaining neurons (NeuN-positive cells)” value is on record as “significantly increased”. The “leakage of IgG from the injured site of the cerebral cortex” value in assay [3] is on record as “significantly suppressed”.

Consider bismuth tartrate, for which the “cell protective effect on hCMEC/D3 (cell viability) compared with zinc sulfate” value in assay [1] is on record as “significantly higher”.

On to `O=[N+]([O-])[O-].O=[N+]([O-])[O-].O=[N+]([O-])[O-].O=[N+]([O-])[O-].[Bi+3].[Bi+3].[Bi+3].[Bi+3].[Bi+3].[O-2].[OH-].[OH-].[OH-].[OH-].[OH-].[OH-].[OH-].[OH-].[OH-]` [bismuth subnitrate], for which the “cavity area of the injured part” value in assay [2] (single i.p. dose 500 mg/kg immediately after C5 crush injury, FIG. 11) is “significantly reduced”. In addition, in assay [2] (single i.p. dose 500 mg/kg immediately after C5 crush injury, FIG. 12), the “number of remaining neurons, rostral side and caudal side of the injured part” value is “increased both on the rostral side and the caudal side”. Further, in assay [4], the “response time of the forelimbs to pain stimulus” value is “significantly longer”. In assay [5] (n=8/group, vehicle group two individuals, FIG. 15), the “number of rats able to walk at a speed of 15 cm/sec or faster” value was determined as 6 individuals. Besides, the “ground contacting area (the Paw Area) on one side” value in assay [5] (vs vehicle, FIG. 14) was “significantly increased”. In addition, the “leakage of IgG from the injured site of the cerebral cortex” value in assay [3] was “significantly suppressed”. The “cell protective effect on hCMEC/D3 (cell viability) compared with zinc sulfate” value in assay [1] is “significantly higher”.

In the case of `O=c1ccc2ccc(OCCCCN3CCN(c4cccc5sccc45)CC3)cc2[nH]1` [brexpiprazole, 7-[4-[4-(1-benzothiophen-4-yl)piperazin-1-yl]butoxy]-1H-quinolin-2-one], the “reactive astrocyte area (GFAP positive area)” value in assay [2] (setting [6]) is given as “significantly reduced”.

For the origin of these results see patent publication US12310941B2, “Agent for protection of blood brain spinal cord barrier” (National University Corporation Hokkaido University, priority 2020, dated 2025).
